From EP4316482A1, “LEVODOPA FOR PREVENTING ADDICTION” (4P-Pharma, priority 2022, dated 2024) come the findings set out here.

What all share (format): in vivo
In assay [1] the test system is C57B1/6J mice. Put plainly: Observation of mice activity: methylphenidate-induced hyperactivity (Example 1). Particulars: male mice, IP, methylphenidate 10 mg/kg, levodopa 17 mg/kg, 5 minutes session 15 minutes after treatment, Mean ± SEM, n=6; for horizontal activity: line crossings; for vertical activity: rearing or climbing. Here is the method: • Species / Strain: Mice / C57B1/6J • Gender / Number / Age: Male / 24 / 8 weeks at study initiation • Source: Janvier Labs, France
The Test items and vehicle were administered via intraperitoneal injections according to Table 2. Table 2 - Study design
(§1) Mice were subj ected to a behavioral test to evaluate their activity 15 minutes after treatment administration (5 minutes session). Mice were acclimated to the surrounding for 15 minutes before the beginning of the test. At the appropriate time after treatment administration, mice (1 per cage) were placed in the middle of a polyethylene cage measuring 17 × 32 × 14 cm without stainless steel top grill (no access to food or drinking water), without bedding and with a line drawn at the bottom of the cage. Activity was then monitored during 5 minutes session at 15 minutes after treatment administration, measuring different parameters: • Horizontal activity: the number of times the mice crossed the line drawn at the bottom of the cage during the session was recorded to assess horizontal activity levels. • Vertical activity: the number of rearing or climbing was recorded to assess vertical activity levels.

The test system of assay [2] is C57B1/6J mice. Put plainly: Observation of mice activity: methylphenidate-induced hyperactivity, levodopa/carbidopa (Example 2). The note with it: male mice, IP, methylphenidate 20 mg/kg, levodopa (carbidopa) 17(1,7) mg/kg, 5 minutes session 15 minutes after treatment, Mean ± SEM, n=6. Here is the method: • Species / Strain: Mice / C57B1/6J • Gender / Number / Age: Male / 24 / 9 weeks at study initiation • Source: Janvier Labs, France
The Test items and vehicle were administered via intraperitoneal injections according to Table 3. Table 3 - Study design
as §1

The subject of assay [3] is C57B1/6J mice. Put plainly: Hyperactivity and behavioral sensitization induced by methylphenidate: distance travelled in drug sessions (Example 3). Particulars: male mice, IP; methylphenidate 3 mg/kg, levodopa (carbidopa) 8,5(0,85) or 17(1,7) mg/kg; four 30 minutes drug sessions; n=9. On the procedure: • Species / Strain: Mice / C57B1/6J • Gender / Number / Age: Male / 36 / 6-8 weeks at study initiation • Source: Janvier Labs, France
The Test items and vehicle were administered via intraperitoneal injections according to Table 4. Table 4 - Study design
Mice were subj ected to a behavioral test to evaluate their activity 30 minutes after treatment administration. Mice received an administration of vehicle and were placed in the apparatus (20 cm wide, 40 cm large, 40 cm high) for the habituation session (30 minutes). After, 4 drug sessions were performed on days 2, 4, 8 and 10 or on days 3, 5, 9 and 11. Mice were injected with one of the tested drugs (or vehicle) immediately before being placed in the box. Mice activity was then monitored during 30 minutes session after treatment administration, measuring: distance travelled in the compartment in the four sessions.

Assay [4] deals with C57B1/6J mice. Description: Behavioral sensitization test for methylphenidate addiction/dependence (Example 4). Particulars: methylphenidate 10 mg/kg, Mean ± SEM; for locomotor activity (total distance travelled) / horizontal activity: female and male mice, IP, levodopa/carbidopa 17/1.7 mg/kg; for locomotor activity (total distance travelled): 20 minutes session; for horizontal activity: line crossings. Here is the method:
• Species / Strain: Mice / C57B1/6J • Gender / Number / Age: Male / 30 / 9 weeks at study initiation and Female / 35 / 9 weeks at study initiation • Source: Janvier Labs, France
The Test items and vehicle were administered via intraperitoneal injections according to Table 5. Table 5 - Study design
Mice were subjected to a behavioral test to evaluate their activity after treatment or vehicle administration. Mice (1 per cage) were placed in the center of a polyethylene cage without stainless steel top grill (no access to food or drinking water), without bedding and with a line drawn at the bottom of the cage. First, mice were acclimated to the surrounding and video-recorded for 10 minutes before the beginning of the test to analyse the baseline motor activity (total distance travelled). Second, mice were injected with test item or vehicle and acclimated for another 5 minutes and activity was again monitored and video recorded during a 20 minutes session. The 10 minutes video containing basal activity and the 20 minutes video after treatment administration were analysed using the ezTracker-master software. Horizontal activity was also measured. It represents the number of times the mice crossed the line drawn at the bottom of the cage. Animals are submitted to 6 sessions (3 sessions/week on Monday, Wednesday and Friday). During session 1, all mice receive an administration of vehicle. During sessions 2-5, groups 1F/1M receive an injection of vehicle; groups 2F/2M receive methylphenidate injection, groups 3F/3M receive levodopa/carbidopa injection and groups 4F/4M receive levodopa/carbidopa and methylphenidate injections. And during session 6, all mice receive an administration of methylphenidate.

Setting [5] is: day 3, development of behavioral sensitization.
Where [6] appears, read: day 10, development of behavioral sensitization.

Turning to `N[C@@H](Cc1ccc(O)c(O)c1)C(=O)O` [levodopa, L-3,4-dihydroxyphenylalanine], in the assay with C57B1/6J mice [1], the horizontal activity worked out at 17±4 counts and the vertical activity was 24±7 counts.

Turning to `COC(=O)C(c1ccccc1)C1CCCCN1` (stereo not drawn) [methylphenidate, Methylphenidate], the horizontal activity is reported as 49±11 counts in the assay with C57B1/6J mice [1], 62±24 counts with C57B1/6J mice [2] (line crossings), 259,69±115,51 counts in the assay on C57B1/6J mice [4] (setting [5]) and 420,38±137,05 counts in the assay on C57B1/6J mice [4] (setting [6]). The vertical activity in the assay with C57B1/6J mice [1] came out at 42±16 counts; in the assay with C57B1/6J mice [2] (rearing or climbing), 59±10 counts. In addition, the “distance travelled during drug sessions” value in the assay with C57B1/6J mice [3] is listed as “increased the distance travelled during drug sessions compared to vehicle-treated group”. For the same compound, the “locomotor activity (total distance travelled)” value is 127,39±38,76 meters in the assay on C57B1/6J mice [4] (setting [5]) and 185,70±41,44 meters in the assay on C57B1/6J mice [4] (setting [6]). Further, the “locomotor activity before treatment administration (baseline motor activity)” value in the assay with C57B1/6J mice [4] (experimental day 12, 10 minutes baseline session before injection, after chronic treatment, levodopa/carbidopa 17/1.7 mg/kg IP) was 28,35±7,43 meters.
